Source: ChEMBL document CHEMBL1800049, “Aryl 1,4-diazepane compounds as potent and selective CB2 agonists: optimization of drug-like properties and target independent parameters” (Bioorg Med Chem Lett, 2011)

Assays:
[1] = Oral bioavailability in cynomolgus monkey; format: ADME, organism-based, Macaca fascicularis; settings: in vivo
[2] = Permeability from apical to basolateral side of human Caco2 cells at 10 uM after […] by HPLC-MS/MS analysis; format: ADME, cell-based; settings: Caco-2, read-out: permeability
[3] = Permeability from basolateral to apical side of human Caco2 cells at 10 uM after […] by HPLC-MS/MS analysis; format: ADME, cell-based; settings: Caco-2, read-out: permeability

| Papp A→B at […], 10 µM [2] | Papp B→A at […], 10 µM [3] | SMILES | bioavailability [1] |
| --- | --- | --- | --- |
| 49 ×10⁻⁶ cm/s | 64 ×10⁻⁶ cm/s | CC(C)(C)c1ccc2oc(N3CCCN(C(=O)C4CCOCC4)CC3)nc2c1 |  |
| 62 ×10⁻⁶ cm/s | 71 ×10⁻⁶ cm/s | O=C(C1CCOCC1)N1CCCN(c2nc3ccc(Cl)cc3s2)CC1 |  |
| 67 ×10⁻⁶ cm/s | 61 ×10⁻⁶ cm/s | O=C(C1CCOCC1)N1CCCN(c2nc(-c3ccccc3)ns2)CC1 |  |

| SMILES | Papp A→B at […], 10 µM [2] | Papp B→A at […], 10 µM [3] | bioavailability [1] |
| --- | --- | --- | --- |
| CC(C)(C)c1cc(NC(=O)N2CCCN(C(=O)C3CCOCC3)CC2)no1 | 7 ×10⁻⁶ cm/s | 42 ×10⁻⁶ cm/s | 3% |
| O=C(C1CCOCC1)N1CCCN(c2nc(C(F)(F)F)c(Cl)s2)CC1 | 53 ×10⁻⁶ cm/s | 70 ×10⁻⁶ cm/s |  |
